In patent publication US20040247703A1, “Composition for inhibiting glutamate-mediated neurotoxicity comprising ginsenoside Rg3 or ginsenoside Rh2” (priority 2002, published 2004):

Legend:
[1] = test system: white mouse hippocampus nerve cells; experiment: MTT assay, survival of nerve cells against cytotoxicity by NMDA; type: cell-based; details: pretreated 1 minute, NMDA 10 minutes, MTT after 24 hours; 100 μg/ml GTS, 10 μM Rg3; FIG. 3
Protocol: 3-(4,5-dimethylthiazole-2-yl)-2,5-diphenyltetrazolium bromide (MTT) assay was carried out to determine the survival rate of cells against cytotoxicity by NMDA in nerve cells. Primarily cultured white mouse hippocampus nerve cells were cultured in a 24-well plate, to which a Neurobasal/B27 (Gibco, Grand Island N.Y.) medium including 0.5 mM L-glutamine, 25 μM glutamate, 25 μM 2-mercaptoethanol, 100 U/ml penicillin and 100 μg/ml streptomycin was added for 6-14 days. The cells were pretreated with 100 μg/ml GTS and 10 μM Rg3 using a Mg^2+ free HEPES buffered solution including 1 μM glycine for 1 minute and then treated with NMDA for 10 minutes. Thereafter, the medium was exchanged with the normal culture medium. Twenty-four hours after such treatment, the cells were treated directly with a 50 μl MTT solution in phosphate buffered saline (PBS) (1 mg/ml). Four hours after MTT treatment, the supernatant was removed, and the produced formazan was resolved in 100 μl dimethylsulfoxide (DMSO). Optical density at 560 nm was read using an automated spectrophotometric plate reader.

[2] = test system: NMDA receptor; experiment: NMDA receptor-mediated Ca2+ influx by Ca2+-imaging technique (fura-2/AM) in cultured hippocampus nerve cells; type: cell-based, mouse; details: for % inhibition of NMDA receptor-mediated [Ca^2+]i infulx: cultured mouse hippocampus nerve cell; for inhibition effect for NMDA receptor activity, screening of pure 20(S) compounds, in words: 9 kinds of 20(S) compounds, FIG. 5; for NMDA receptor-mediated Ca^2+ influx inhibition, comparison of isomer forms, in words: Table 1 comparison of 20(S)-form with mixture of S-form and R-form
Protocol: (§1) Hippocampus nerve tissues were separated from an 18-day-old fetus to 1-day-old newborn white mouse using a dissection microscope. The tissues were treated with Leibovitz L-15 medium (Gibco, Grand Island, N.Y.) including 0.05% papain at 37° C. for 20 minutes. Then, the solution was washed with Ca^2+ or Mg^2+ free Hank's Balanced Salt Solution (Gibco, Grand Island, N.Y.) several times, and the single hippocampus nerve cell was separated mechanically by adjusting the pore size of the Pasteur pipette. The cell was cultured on a cover slip that was treated with poly-L-lysine in a concentration of 1.5×10^5 cell/ml.
The cell was cultured in a culturing solution of Neurobasla/B27 (Gibco, Grand Island, N.Y.) to which 0.5 mM L-glutamine, 25 μM glutamate, 25 μM 2-mercaptoethanol, 100 U/ml penicillin and 100 μg/ml streptomycin were added. Half of the medium was replaced twice a week with a medium having no added glutamate. Cells that were cultured for 7 to 15 days were used in the experiment.
Fura-2/AM (Molecular probes: Eugene, Oreg.) of the acetoxymethyl-ester form was used as a fluorescent Ca^2+ label. The hippocampus nerve cell was primarily incubated with 5 μM fura-2/AM and 0.001% Pluronic F-127 in HEPES buffer solution (unit mM: 150 NaCl, 5 KCl, 1 MgCl2,2 CaCl2,10 HEPES, 10 glucose, pH 7.4) at room temperature for 40 to 60 minutes and then washed with the HEPES buffer solution several times. After stabilizing the cell for 10 minutes, the change in intracellular Ca ion concentration was determined using an inverted microscope.
Specifically, the cell was exposed selectively to the excitation wavelengths (340 nm and 380 nm) from a xenon arc lamp by a computer-controlled filter wheel (Sutter Instruments, CA). Data was obtained every 2 seconds and a shutter was placed at the light-exposed portion so as to prevent any photo-toxicity on the cell. Emitter fluorescence light, which passed through a 515 nm long-pass filter, reached a cooling CCD camera. The ratios of intensity (340/380 nm) were converted to intracellular free Ca^2+ concentration ([Ca^2+]i) by digital fluorescence analyzer. Analysis of all image data was performed using Universal Imaging software (West Chester, Pa.).
Method for screening NMDA receptor inhibitor via NMDA receptor activity in a hippocampus nerve cell was performed by a Ca^2+-imaging technique using a Ca-dependent dye, fura-2/AM, as explained in Example 2.
Therefore, the system was used in the NMDA receptor inhibitor screening of ginseng components.
As stated above, the experiments of FIGS. 2A to 2C were to determine Ca^2+ influx caused by NMDA activity, when NMDA was administered to the cultured hippocampus nerve cell (5˜10 seconds), by using the Ca^2+-imaging technique. […]

[3] = test system: hippocampus nerve cells; details: literature (Lim, J. H. et al. 1997); cited from earlier work
[4] = test system: cultured cortical neuron; details: literature (Kim, Y. C. et al. 1998); cited from earlier work
[5] = test system: NMDA receptor; experiment: NMDA receptor-mediated membrane current by whole-cell patch-clamp in hippocampus nerve cells; type: cell-based, mouse; details: 10 μM; FIG. 2D
Protocol: as §1
The cell was cultured in a culturing solution of Neurobasla/B27 (Gibco, Grand Island, N.Y.) to which 0.5 mM L-glutamine, 25 μM glutamate, 25 μM 2-mercaptoethanol, 100 U/ml penicillin and 100 μg/ml streptomycin were added. Half of the medium was replaced twice a week with a medium having no added glutamate. […]
Whole-cell voltage-clamp recordation was carried out using a perforated patch-clamp method. […] After 10 minutes, the membrane current was determined. […]
As a solution that allows only the monovalent ion to pass the membrane to produce an electric current, Nystatin stock solution of 25 mg/ml was diluted into a concentration of 250 μg/ml and added to the internal solution. […] The membrane voltage was recorded using an EPC-9 amplifier and Pulse/Pulsefit software (HEKA, Germany). […]

Compound | cell viability against neurotoxicity caused by NMDA, in words [1] | % inhibition of NMDA receptor-mediated [Ca^2+]i infulx ([2]; 1 μM) | inhibition effect for NMDA receptor activity, screening of pure 20(S) compounds, in words [2] | NMDA receptor-mediated Ca^2+ influx inhibition, comparison of isomer forms, in words [2] | glutamate-induced neurotoxicity in cultured cortical neuron, in words [4] | other results
N[C@H](CCCP(=O)(O)O)C(=O)O [D-APV, D(−)-2-amino-5-phosphono-pentanoic acid, reference compound] | effectively increase cell viability | – | – | – | – | Ca^2+ concentration ([Ca^2+]i) after NMDA application, in words ([2]; FIG. 1, repeated NMDA applications): significantly decreased
CC(C)=CCC[C@](C)(O)[C@H]1CC[C@]2(C)[C@@H]1[C@H](O)C[C@@H]1[C@@]3(C)CC[C@H](O[C@@H]4O[C@H](CO)[C@@H](O)[C@H](O)[C@H]4O)C(C)(C)[C@@H]3CC[C@]12C [ginsenoside Rh2] | – | – | – | – | – | % inhibition of NMDA receptor-mediated [Ca^2+]i infulx ([2]; 10 μM): 18.6 ± 2.7 %
CC(C)=CCC[C@](C)(O)[C@H]1CC[C@]2(C)[C@@H]1[C@H](O)C[C@@H]1[C@@]3(C)CC[C@H](O[C@@H]4O[C@H](CO)[C@@H](O)[C@H](O)[C@H]4O)C(C)(C)[C@@H]3CC[C@]12C [20(S)-ginsenoside Rh2] | – | 47.1 ± 4.3% | most excellent inhibition effect | superior effect to the mixture of S-form and R-form isomers | – | –
CC(C)=CCC[C@](C)(O)[C@H]1CC[C@]2(C)[C@@H]1[C@H](O)C[C@@H]1[C@@]3(C)CC[C@H](O[C@@H]4O[C@H](CO)[C@@H](O)[C@H](O)[C@H]4O[C@@H]4O[C@H](CO)[C@@H](O)[C@H](O)[C@H]4O)C(C)(C)[C@@H]3CC[C@]12C [20(S)-ginsenoside Rg3] | – | 30.4 ± 2.3% | most excellent inhibition effect | – | – | –
CC(C)=CCC[C@](C)(O[C@@H]1O[C@H](CO[C@@H]2O[C@H](CO)[C@@H](O)[C@H](O)[C@H]2O)[C@@H](O)[C@H](O)[C@H]1O)[C@H]1CC[C@]2(C)[C@@H]1[C@H](O)C[C@@H]1[C@@]3(C)CC[C@H](O[C@@H]4O[C@H](CO)[C@@H](O)[C@H](O)[C@H]4O[C@@H]4O[C@H](CO)[C@@H](O)[C@H](O)[C@H]4O)C(C)(C)[C@@H]3CC[C@]12C [ginsenoside Rb1, reference compound] | – | – | – | – | inhibited | death of hippocampus nerve cells during cerebral ischemia, in words [3]: inhibits death of hippocampus nerve cells
CC(C)=CCC[C@](C)(O)[C@H]1CC[C@]2(C)[C@@H]1[C@H](O)C[C@@H]1[C@@]3(C)CC[C@H](O[C@@H]4O[C@H](CO)[C@@H](O)[C@H](O)[C@H]4O[C@@H]4O[C@H](CO)[C@@H](O)[C@H](O)[C@H]4O)C(C)(C)[C@@H]3CC[C@]12C [ginsenoside Rg3] | effectively increase cell viability | 31.2 ± 2.5% | – | equivalent efficacy regardless of an S-form or R-form isomer and their mixture | inhibited | NMDA receptor inhibition efficiency, screening of 10 ginsenosides, in words ([2]; 10 μM, ginsenosides including isomers of C-20 position, FIGS. 2A and 2B): superior to those of other ginsenosides; IC50 ([2]; Ca2+ influx on NMDA in cultured hippocampus nerve cell, read-out: IC50 of NMDA receptor inhibition (concentration dependence, FIG. 2C)): 3.8 µM; NMDA receptor-mediated inward current, in words [5]: inhibits the inward current
